Patent publication US20190136254A1, “ALS Inhibitor Herbicide Tolerant Mutant Plants” (BASF SE, priority 2013, published 2019)
Positions count from the first letter of the chain named. In names and notes the source's numbering stands.

Experiments:
[1] = target: AHAS protein comprising both the P197S and W574L mutation in one ALS protein (Arabidopsis thaliana, UniProt P17597, P197S/W574L); assay type: biochemical; settings: both mutations in one ALS protein
Experimental: (§1) Bacteria are grown at 37° C. in LB-medium containing 100 mg/l carbenicillin and 25 mg/l canamycin, induced with 1 mM isopropyl-β-D-thiogalactopyranoside at an OD600 of 0.6, cultivated for 16 hours at 18° C. and harvested by, e.g., centrifugation. Bacterial pellets are resuspended in 100 mM sodium phosphate buffer pH 7.0 containing 0.1 mM thiamine-pyrophosphate, 1 mM MgCl2, and 1 μM FAD at a concentration of 1 gram wet weight per 25 ml of buffer and disrupted by, e.g., sonification. The crude protein extract obtained after centrifugation is used for ALS activity measurements.
(§2) ALS protein can be extracted from leaves or tissue cultures, such as B. napus or B. juncea leaves, or B. napus or B. juncea tissue cultures as described by Ray (Plant Physiol, 1984, 75:827-831). An ALS assays can be carried out in 96-well microtiter plates using a modification of the procedure described by Ray (1984): The reaction mixture contains 20 mM potassium phosphate buffer pH 7.0, 20 mM sodium pyruvate, 0.45 mM thiamine-pyrophosphate, 0.45 mM MgCl2, 9 μM FAD. ALS enzyme and various concentrations of ALS inhibitors can be mixed in a final volume of 90 μl. Assays can be initiated by adding enzyme and the assays can be terminated after 75 min incubation at 30° C. by the addition of 40 μl 0.5 M H2SO4.

[2] = target: mixture of two ALS proteins, one comprising the P197S and the other the W574L mutation (Arabidopsis thaliana, UniProt P17597, P197S/W574L); assay: biochemical
mixture of two ALS proteins, one comprising the P197S and the other the W574L mutation, sequence (P17597 56-670 P197S/W574L): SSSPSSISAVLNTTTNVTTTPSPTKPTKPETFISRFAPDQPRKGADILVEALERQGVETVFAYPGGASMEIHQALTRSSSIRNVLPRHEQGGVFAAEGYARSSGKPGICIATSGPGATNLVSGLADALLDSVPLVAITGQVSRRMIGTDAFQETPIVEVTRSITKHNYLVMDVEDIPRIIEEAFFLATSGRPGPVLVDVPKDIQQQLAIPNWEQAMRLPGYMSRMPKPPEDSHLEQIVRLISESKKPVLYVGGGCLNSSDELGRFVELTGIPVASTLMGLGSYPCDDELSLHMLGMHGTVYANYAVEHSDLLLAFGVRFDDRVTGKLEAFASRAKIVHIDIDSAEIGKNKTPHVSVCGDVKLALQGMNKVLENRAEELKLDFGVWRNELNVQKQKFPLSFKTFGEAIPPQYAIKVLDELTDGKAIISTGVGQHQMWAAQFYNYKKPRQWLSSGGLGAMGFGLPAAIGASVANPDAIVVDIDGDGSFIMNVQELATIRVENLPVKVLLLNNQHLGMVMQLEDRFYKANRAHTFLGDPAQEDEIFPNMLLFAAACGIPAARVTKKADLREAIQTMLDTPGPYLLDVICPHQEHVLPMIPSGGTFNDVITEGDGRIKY

[3] = target: AHAS protein comprising the P197S mutation (Arabidopsis thaliana, UniProt P17597, P197S); assay: biochemical
AHAS protein comprising the P197S mutation, sequence (P17597 56-670 P197S): as the sequence (P17597 56-670 P197S/W574L) above, with L519W counted along it
Experimental: as §1, §2

[4] = target: AHAS protein comprising the W574L mutation (Arabidopsis thaliana, UniProt P17597, W574L); assay: biochemical
AHAS protein comprising the W574L mutation, sequence (P17597 56-670 W574L): as the sequence (P17597 56-670 P197S/W574L) above, with S142P counted along it
Experimental: as §1, §2

AHAS protein WT = AHAS protein WT (Arabidopsis thaliana, UniProt P17597); assay: biochemical
AHAS protein WT, sequence (P17597 56-670): as the sequence (P17597 56-670 P197S/W574L) above, with S142P, L519W counted along it
Experimental: as §1, §2

[5] = tested on: Brassica napus hypocotyl derived callus; assay: Selection of hypocotyl derived callus on medium containing Foramsulfuron; assay type: cell-based
Experimental: Five day old seedlings were used for the preparation of hypocotyl segments 7-10 mm in length. Hypocotyl segments were transferred to 14 cm Petri plates containing 75 ml of M-338 [H76] callus induction medium (25 explants/plate). M-338 [H76] medium is MS salts and vitamins (Murashige and Skoog, 1962), 20 g/l sucrose, 0.5 g/l MES, 0.5 g/l adenine sulphate, 5 mg/l silver nitrate, 0.5 mg/l 2,4-D, 0.2 mg/l kinetin and solidified with 5.5 g/l agarose (pH 5.7). Dishes were sealed and cultured at 24° C. with standard light conditions (16 h/day). After 3 weeks, calli developing at the ends of the explants were transferred to fresh M-338 [H76] plates (25 calli/plate). Calli were subcultured to fresh medium every 3 weeks (larger calli cut into two pieces).
Hypocotyl derived callus (9 weeks old) was used for the selection of herbicide resistant mutants. Small pieces of callus were plated on M-338 [H76] medium containing 25 nM of the ALS inhibitor Foramsulfuron (CAS RN 173159-57-4). […] Dishes were cultured at 24° C. with standard light conditions (16 h/day). After 3 weeks, the calli were divided into 2 pieces each and replated on M-338 [H76] medium containing 50 nM Foramsulfuron. […]

[6] = Kinetic parameters of enzymatic activity of AHAS proteins; assay type: biochemical; settings: enzymatic activity of the AHAS protein
Experimental: The ALS inhibitor sensitivity and kinetic parameters of AHAS proteins comprising the P197S mutation, the W574L mutation, and both the P197S and W574L mutation in one ALS protein, were determined essentially as described in WO 2013/127766. ALS inhibitor sensitivity of a mixture of two ALS proteins, one of which comprising the P197S and the other comprising the W574L mutations were calculated as described in WO 2013/127766.

AHAS protein comprising both the P197S and W574L mutation in one ALS protein, sequence (P17597 56-670 P197S/W574L): as the sequence (P17597 56-670 P197S/W574L) above

## COc1cc(OC)nc(NC(=O)NS(=O)(=O)c2cc(NC=O)ccc2C(=O)N(C)C)n1 [Foramsulfuron, foramsulfuron]
[1]
  pI50 P197S-W574L (in one protein): <4
[1]; relative to WT
  Resistance Factor P197S-W574L (in one protein): >11748
[2]
  IC50: 2510 nM
[2]; calculated mixture of two ALS proteins, relative to WT
  Resistance Factor P197S & W574L (mixture): 398
[3]
  IC50: 100 nM
[3]; AHAS P197S relative to WT
  Resistance Factor P197S: 12
[4]
  IC50: 50100 nM
[4]; AHAS W574L relative to WT
  Resistance Factor W574L: 5888
AHAS protein WT
  IC50: 7.94 nM
[5]; 25 nM in M-338 [H76] medium, 9 weeks old hypocotyl derived callus
  effect on callus growth: partially inhibitory to callus growth but not lethal
[5]; 250 nM in M-338 [H76] medium
  effect on WT tissues: clearly inhibitory to WT tissues

B1: P197S: AHAS protein comprising the P197S mutation (protein, listed as Arabidopsis thaliana)
chain: MAAATTTTTTSSSISFSTKPSPSSSKSPLPISRFSLPFSLNPNKSSSSSRRRGIKSSSPSSISAVLNTTTNVTTTPSPTKPTKPETFISRFAPDQPRKGADILVEALERQGVETVFAYPGGASMEIHQALTRSSSIRNVLPRHEQGGVFAAEGYARSSGKPGICIATSGPGATNLVSGLADALLDSVPLVAITGQVSRRMIGTDAFQETPIVEVTRSITKHNYLVMDVEDIPRIIEEAFFLATSGRPGPVLVDVPKDIQQQLAIPNWEQAMRLPGYMSRMPKPPEDSHLEQIVRLISESKKPVLYVGGGCLNSSDELGRFVELTGIPVASTLMGLGSYPCDDELSLHMLGMHGTVYANYAVEHSDLLLAFGVRFDDRVTGKLEAFASRAKIVHIDIDSAEIGKNKTPHVSVCGDVKLALQGMNKVLENRAEELKLDFGVWRNELNVQKQKFPLSFKTFGEAIPPQYAIKVLDELTDGKAIISTGVGQHQMWAAQFYNYKKPRQWLSSGGLGAMGFGLPAAIGASVANPDAIVVDIDGDGSFIMNVQELATIRVENLPVKVLLLNNQHLGMVMQWQDRFYKANRAHTFLGDPAQEDEIFPNMLLFAAACGIPAARVTKKADLREAIQTMLDTPGPYLLDVICPHQEHVLPMIPSGGTFNDVITEGDGRIKY
[6]
  Km: 5.5 mM
  Vmax: 50.0 deltaOD550/min mg protein

B2: W574L: AHAS protein comprising the W574L mutation (protein, listed as Arabidopsis thaliana)
chain: B1 chain with S197P, W574L
[6]
  Km: 7 mM
  Vmax: 54.4 deltaOD550/min mg protein

B3: P197S-W574L (in one protein): AHAS protein comprising both the P197S and W574L mutation in one ALS protein (protein, listed as Arabidopsis thaliana)
chain: B1 chain with W574L
[6]
  Km: 31.5 mM
  Vmax: 87.7 deltaOD550/min mg protein
